Laboratory results taken from patent publication US10857105B2, “Compounds and compositions for intracellular delivery of therapeutic agents” (ModernaTX, Inc., priority 2017, dated 2020).

What was measured:
[1] = Particle size and polydispersity index of nanoparticle compositions (Zetasizer Nano ZS); format: physicochemical
In short: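 Size and PDI measured by Zetasizer Nano ZS in 1×PBS (zeta potential in 15 mM PBS). Lipid nanoparticles contained test ionizable lipid:DSPC:cholesterol:PEG-DMG at 50:10:38.5:1.5 mol % with N1-methyl-pseudouridine mRNA encoding luciferase or hEPO.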

modified luciferase = assay: Luciferase expression in liver, lung, spleen and femur 6 hours after intravenous administration to mice; format: in vivo; settings: 6 hours after intravenous 0.5 mpk, mice
In short: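 Nanoparticle formulations of the modified luciferase were given intravenously to mice (n=3) at 0.5 mpk. Bioluminescence was measured after 6 hours as total light flux. Standard MC3 formulation and PBS run as controls.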

IL-6, IP-10 = assay: Cytokine induction (IL-6, IP-10) in mice 6 hours after intravenous administration; format: in vivo; set-up: unit not given here; settings: intravenous 0.5 mpk
In short: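 Mice dosed intravenously with nanoparticle compositions at 0.5 mpk; serum cytokine concentrations (IL-6, IP-10) measured at 6 hours. MC3 formulation and PBS controls run alongside.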

[2] = Residual lipid levels in rat liver and spleen (UPLC-MS); format: in vivo; settings: for % Lipid Remaining in liver, 48 h, 2 mpk: assuming 300 g rat and 15 g liver
Method: At 48 h liver tissue was harvested for lipid quantification. To pre-weighed tissues, Milli-Q water was added (900 μL water per 100 mg tissue). Tissues were homogenized using an Omni probe homogenizer until uniform. 50 μL of samples and matrix calibration standards were aliquoted into a 96-well plate. 50 μL of blank matrix for matrix blanks and control blanks were aliquoted. 400 μL IS spiking solution were manually added to all samples except matrix blanks. 400 μL of 50:50 ACN:IPA were manually added to matrix-blanks. The plate was covered and the samples vortexed and centrifuged for 5 minutes at >3000 rpm. 200 μL of the samples were transferred into a clean 96-well plate for analysis. Samples were analyzed on a Waters Acquity UPLC using a Higgins Analytical Clipeus C8 column ([…], 30×2.1 mm) and a gradient of either 70-95% or 60-95% (Mobile Phase A: 5 mM ammonium formate in 50:50:1 H2O:MeOH:formic acid; Mobile Phase B: 5 mM ammonium formate in 100:1 MeOH:formic acid) over 1.3 min at […] (column temperature 55° C.). Detection was based on electrospray ionization (ESI) in positive mode using a Sciex API5500 Mass Spectrometer.
The expression of hEPO in rats intravenously administered a nanoparticle composition at a dose of 0.2 mpk or 2.0 mpk was measured at 6 hours. Table 16 summarize the ratio of hEPO expression levels using various nanoparticle compositions as compared to the hEPO expression level using MC3 formulation and the lipid levels in the liver measured 48 hours after administration, as described above. Tables 17 and 18 summarize the lipid levels in the liver and spleen measured 48 hours after administration of Compounds 28, 33, 53, and 54. Liver and spleen levels represent the average values calculated for 3 rats in each group. As is shown in Tables 17 and 18, less than 10% of Compounds 28, 33, 53, and 54 remained in the liver after 48 hours, while greater than 60% of MC3 remained.
Table 19A summarizes the hEPO expression, IP-10 induction, liver and spleen levels, and alanine aminotransferase (ALT) and aspartate aminotransferase (AST) measured upon intravenous administration of formulations including Compounds 48, 49, and 50 to rat at 0.2 and 2 mpk and hEPO mRNA. hEPO concentrations were measured 6 hours after administration, while cytokine induction and liver and spleen levels were measured 48 hours after administration. hEPO and IP-10 concentrations are presented in pg/ml, while liver levels are provided in ng/g. ALT and AST levels are presented in international units.
The expression of hEPO and lipid levels in the liver and spleen in rats intravenously administered a nanoparticle composition at a dose of 0.2 mpk was measured at various time points. Compounds 18 and 25 were selected for comparison with MC3. Lipids were formulated according to the standard MC3 formulation described above. Rats were administered intravenously a single 0.2 mpk dose and expression monitored at 0.25, 0.5, 1, 2, 4, 8, 24, and 48 hours after administration.

[3] = Table 1A, lipid:DSPC:cholesterol:PEG-DMG 50:10:38.5:1.5 mol %
[4] = Table 1B, formulated with hEPO mRNA
[5] = Table 1C, compositions for subcutaneous administration
[6] = Table 1D, compositions for subcutaneous administration, # formulated with hEPO mRNA
[7] = Table 1E, compositions for subcutaneous administration
[8] = lipid:DSPC:Chol:PEG-DMG (50:10:38.5:1.5), hEPO mRNA
[9] = nanoparticle composition with hEPO mRNA (Table 30)

| Size [1, 3] | Size [1, 5] | Size [1, 6] | % Lipid Remaining in liver, 48 h, 2 mpk ([2]; rats, 48 h) | Molecule | Size [1, 4] | Total Flux, Femur (modified luciferase) | Total Flux, Liver (modified luciferase) | Total Flux, Lung (modified luciferase) | Total Flux, Spleen (modified luciferase) | Cytokine induction, IL-6 (IL-6, IP-10) | Cytokine induction, IP-10 (IL-6, IP-10) | also measured |
| --- | --- | --- | --- | --- | --- | --- | --- | --- | --- | --- | --- | --- |
| 97.5 nm |  |  | 14% | CCCCCCCCCN(CCO)CCCCCCCC(=O)OC(CCCCCCCC)CCCCCCCC [Compound 3, Heptadecan-9-yl 8-((2-hydroxyethyl)(nonyl)amino)octanoate] |  | 7.36E+06 | 1.39E+10 | 4.76E+07 | 1.47E+08 | 282.88 | 2052.87 |  |
| 82.3 nm |  | 79.8 nm | 7.22% | CCCCCCCCC(C)OC(=O)CCCCCCCN(CCO)CCCCCCCC(=O)OC(CCCCCCCC)CCCCCCCC (stereo not shown) [Compound 48, decan-2-yl 8-((8-(heptadecan-9-yloxy)-8-oxooctyl)(2-hydroxyethyl)amino)octanoate] |  |  | 1.08E+10 | 3.31E+07 | 3.49E+08 |  |  |  |
|  | 76.3 nm | 77.6 nm | 1.32% | CCCCCCCCCCCOC(=O)CCCCCN(CCO)CCCCCCCC(=O)OC(CCCCCCCC)CCCCCCCC [Compound 25, Heptadecan-9-yl 8-((2-hydroxyethyl)(6-oxo-6-(undecyloxy)hexyl)amino)octanoate] | 69.7 nm | 4.40E+06 | 2.41E+09 | 1.51E+07 | 3.11E+07 | 233.45 | 1194.13 |  |
| 99.5 nm | 88.5 nm |  | 0.016% | CCCCCC/C=C\COC(=O)CCCCCCCN(CCO)CCCCCCCC(=O)OC(CCCCCCCC)CCCCCCCC [Compound 24, Heptadecan-9-yl (Z)-8-((2-hydroxyethyl) (8-(non-2-en-1-yloxy)-8-oxooctyl)amino)octanoate] |  | 4.54E+06 | 4.19E+09 | 1.71E+07 | 8.78E+07 | 163.53 | 1172.93 |  |
| 59.4 nm | 81.7 nm | 89.8 nm | <0.01% | CCCCCCCCCOC(=O)CCCCCCCN(CCO)CCCCCCCOC(=O)C(CCCCCCCC)CCCCCCCC [Compound 30, 7-((2-Hydroxyethyl)(8-(nonyloxy)-8-oxooctyl)amino)heptyl 2-octyldecanoate] | 76.3 nm | 6.38E+06 | 2.68E+09 | 1.02E+07 | 3.55E+07 | 152.51 | 1638.77 |  |

| Molecule | Size [1, 3] | Size [1, 5] | Size [1, 6] | % Lipid Remaining in liver, 48 h, 2 mpk ([2]; rats, 48 h) | Size [1, 4] | Total Flux, Femur (modified luciferase) | Total Flux, Liver (modified luciferase) | Total Flux, Lung (modified luciferase) | Total Flux, Spleen (modified luciferase) | Cytokine induction, IL-6 (IL-6, IP-10) | Cytokine induction, IP-10 (IL-6, IP-10) | also measured |
| --- | --- | --- | --- | --- | --- | --- | --- | --- | --- | --- | --- | --- |
| CCCCCC=CCC=CCCCCCCCCC(CCCCCCCCC=CCC=CCCCCC)OC(=O)CCCN(C)C (stereo not shown) [MC3, heptatriaconta-6,9,28,31-tetraen-19-yl 4-(dimethylamino)butanoate, reference compound] | 79.7 nm | 56.9 nm | 69.1 nm | 87% | 57.7 nm | 2.56E+06 | 2.57E+09 | 1.27E+07 | 2.85E+07 | 124.42 | 504.90 | PDI [1, 3]: 0.11; PDI [1, 4]: 0.12; PDI [1, 5]: 0.09; PDI [1, 6]: 0.15; PDI [1, 7]: 0.10; Size [1, 7]: 62.4 nm; PDI [1, 8]: 0.114; Size [1, 8]: 73.7 nm; PDI [1, 9]: 0.220; Size [1, 9]: 106.0 nm; % dose remaining, liver, 24 h ([2]; Table 19B, liver, 24 h): 44%; % lipid remaining in liver after 48 hours ([2]; liver, 48 hours): 87%; % remaining dose in liver, 48 h ([2]; rats, 48 h): 74%; Lipid remaining in the liver after 48 hours ([2]; rats, intravenous, 0.2 mpk or 2.0 mpk, 48 hours): greater than 60% |
| CCCCCCCCCOC(=O)CCCN(CCO)CCCCCCCC(=O)OC(CCCCCCCC)CCCCCCCC [Compound 26, Heptadecan-9-yl 8-((2-hydroxyethyl)(4-(nonyloxy)-4-oxobutyl)amino) octanoate] |  |  |  | 20% |  | 4.67E+06 | 2.90E+09 | 1.18E+07 | 1.56E+07 | 273.56 | 2330.01 |  |
| Nonyl 8-((6-(heptadecan-9-yloxy)-6-oxohexyl)(2-hydroxyethyl)amino) octanoate [Compound 27] | 82.3 nm |  |  |  |  | 2.00E+06 | 2.16E+09 | 6.35E+06 | 3.78E+06 | 161.07 | 345.56 | PDI [1, 3]: 0.18 |
| CCCCCCCCCOC(=O)CCCCCCCN(CCO)CCCCCCCC(=O)OC(CCCCCCCC)CCCCCCCC [Compound 18, Heptadecan-9-yl 8-((2-hydroxyethyl)(8-(nonyloxy)-8-oxooctyl)amino)octanoate] | 87.9 nm |  | 75.0 nm | 0.018% | 73.7 nm | 4.68E+06 | 2.76E+09 | 1.25E+07 | 5.15E+07 | 78.76 | 139.92 |  |
